Source: article PMC11728001, “Design, Synthesis, and Biological Evaluation of Novel Urea-Containing Carnosic Acid Derivatives with Anticancer Activity” (International Journal of Molecular Sciences, 2024)
Where two headings read alike, the source gives them in different places.

Experiments:
Caco-2 cells = test: MTT cell viability assay, Caco-2; assay type: cell-based; settings: Homo sapiens, 72 h incubation, mean ± SD
Method: (§1) The effect of the compounds on cell viability was evaluated using the MTT assay. HCT116 (3000 cells/well), SW620 (8000 cells/well), SW480 (6000 cells/well), Caco-2 (4000 cells/well), A375 (1500 cells/well), MiaPaca-2 (2000 cells/well), and BJ (10,000 cells/well) cells were seeded in 96-well plates. After 24 h, the growth medium was replaced with a fresh medium containing the desired concentration of the compound or DMSO (control). After 72 h of incubation, the supernatant was removed and 100 µL of a mixture (1:1) of filtered MTT solution (1 mg/mL in PBS) with FBS-free medium was added to each well. After 1 h of incubation at 37 °C, the mixture was removed and 100 µL of DMSO was added to each well to dissolve the formed formazan crystals. Absorbance was immediately measured at 570 nm using a Benchmark Plus Microplate Reader (Bio-Rad Laboratories, Hercules, CA, USA). IC50 values were calculated using GraphPad Prism 9 software (GraphPad Software, San Diego, CA, USA) and expressed as the mean ± standard deviation (SD) of at least three independent experiments.

A375 melanoma cells [1] = test: MTT cell viability assay, A375; assay type: cell-based; settings: Homo sapiens, A-375, 72 h incubation, mean ± SD
Method: as §1

SW480 cells = test: MTT cell viability assay, SW480; assay type: cell-based; settings: Homo sapiens, 72 h incubation, mean ± SD
Method: as §1

SW620 cells [2] = test: MTT cell viability assay, SW620; assay type: cell-based; settings: Homo sapiens, SW-620, 72 h incubation, mean ± SD
Method: as §1

[3] = test system: MiaPaca-2 pancreatic cancer cells; test: MTT cell viability assay, MiaPaca-2; assay type: cell-based; settings: Homo sapiens, MIA PaCa-2, 72 h incubation, mean ± SD
Method: as §1

[4] = test system: HCT116 colorectal cancer cell line; test: MTT cell viability assay, HCT116; assay type: cell-based; settings: Homo sapiens, HCT-116, 72 h incubation, mean ± SD
Method: The antiproliferative activity of CA 1 and its derivatives was evaluated against a colorectal cancer (CRC) cell line (HCT116) using the MTT assay. The anticancer drug cisplatin was used as the reference drug.
as §1

A375 melanoma cells [5] = test system: A375 melanoma cells; parameters: method as in PMID 23229057; settings: from literature, same methodology; cited from earlier work
[6] = test system: BJ non-tumoral fibroblast cell line; parameters: method as in PMID 41058673; settings: obtained previously by the research group, same methodology; cited from earlier work
[7] = test system: MiaPaca-2 pancreatic cancer cells; parameters: method as in PMID 18007390; settings: from literature, same methodology; cited from earlier work
[8] = test system: HCT116 colorectal cancer cell line; parameters: method as in PMID 29922789; settings: MTT, 72 h; obtained previously by the research group, same methodology; cited from earlier work
SW620 cells [9] = test system: SW620 cells; parameters: method as in PMID 31909511; settings: obtained previously by the research group, same methodology; cited from earlier work

`CC(C)c1cc2c(c(O)c1O)[C@@]1(C(=O)O)CCCC(C)(C)[C@@H]1CC2` [CA 1, Carnosic acid] gave an IC50 (Caco-2 cells) of 34 ± 2 µM, an IC50 (A375 melanoma cells [1]) of 27.6 ± 0.5 µM and an IC50 (SW480 cells) of 21.8 ± 0.7 µM. The IC50 (SW620 cells [2]) was 18 ± 2 µM, the IC50 [3] was 21 ± 2 µM and the IC50 [4] was 42 ± 4 µM.

In the case of `N.N.[Cl][Pt][Cl]` [Cisplatin, cisplatin], the IC50 (A375 melanoma cells [5]) is listed as 3 ± 1 µM, the IC50 [6] is listed as 10 ± 2 µM and the IC50 [7] is listed as 5 ± 1 µM. The IC50 [8] was 21 ± 1 µM and the IC50 (SW620 cells [9]) was 1.4 ± 0.5 µM.

In the case of `CC(=O)Oc1c(C(C)C)cc2c(c1OC(C)=O)[C@@]1(C(=O)O)CCCC(C)(C)[C@@H]1CC2` [Compound 2, (4aR,10aS)-5,6-Diacetoxy-7-isopropyl-1,1-dimethyl-1,3,4,9,10,10a-hexahydrophenanthrene-4a(2H)-carboxylic acid], the IC50 [4] is reported as 44 ± 4 µM.

For `CC(=O)Oc1c(C(C)C)cc2c(c1OC(C)=O)[C@@]1(N=C=O)CCCC(C)(C)[C@@H]1CC2` [Compound 5, (4bR, 8aS)-4b-Isocyanato-2-isopropyl-8,8-dimethyl-4b,5,6,7,8,8a,9,10-octahydrophenanthrene-3,4-diyl diacetate], the IC50 [4] was 28 ± 3 µM.

With `CNC(=O)N[C@]12CCCC(C)(C)[C@@H]1CCc1cc(C(C)C)c(OC(C)=O)c(OC(C)=O)c12` [Compound 6, (4bR,8aS)-2-isopropyl-8,8-dimethyl-4b-(3-methylureido)-4b,5,6,7,8,8a,9,10-octahydrophenanthrene-3,4-diyl diacetate] the IC50 [4] was 55 ± 5 µM.

With `CCNC(=O)N[C@]12CCCC(C)(C)[C@@H]1CCc1cc(C(C)C)c(OC(C)=O)c(OC(C)=O)c12` [Compound 7, (4bR,8aS)-4b-(3-Ethylureido)-2-isopropyl-8,8-dimethyl-4b,5,6,7,8,8a,9,10-octahydrophenanthrene-3,4-diyl diacetate] the IC50 [4] was 44 ± 4 µM.

In the case of `CCCNC(=O)N[C@]12CCCC(C)(C)[C@@H]1CCc1cc(C(C)C)c(OC(C)=O)c(OC(C)=O)c12` [Compound 8, (4bR,8aS)-2-isopropyl-8,8-dimethyl-4b-(3-propylureido)-4b,5,6,7,8,8a,9,10-octahydrophenanthrene-3,4-diyl diacetate], the IC50 [4] is reported as 31 ± 1 µM.

With `CCCCN(C)C(=O)N[C@]12CCCC(C)(C)[C@@H]1CCc1cc(C(C)C)c(OC(C)=O)c(OC(C)=O)c12` [Compound 9, (4bR,8aS)-4b-(3-butyl-3-methylureido)-2-isopropyl-8,8-dimethyl-4b,5,6,7,8,8a,9,10-octahydrophenanthrene-3,4-diyl diacetate] the IC50 [4] was 22 ± 1 µM.

Compound `CC(=O)Oc1c(C(C)C)cc2c(c1OC(C)=O)[C@@]1(NC(=O)NCC(C)C)CCCC(C)(C)[C@@H]1CC2` [Compound 10, (4bR,8aS)-4b-(3-isobutylureido)-2-isopropyl-8,8-dimethyl-4b,5,6,7,8,8a,9,10-octahydrophenanthrene-3,4-diyl diacetate] has an IC50 [4] of 22 ± 2 µM.

`CC(=O)Oc1c(C(C)C)cc2c(c1OC(C)=O)[C@@]1(NC(=O)NCC(C)(C)CN(C)C)CCCC(C)(C)[C@@H]1CC2` [Compound 11, (4bR,8aS)-4b-(3-(3-(dimethylamino)-2,2-dimethylpropyl)ureido)-2-isopropyl-8,8-dimethyl-4b,5,6,7,8,8a,9,10-octahydrophenanthrene-3,4-diyl diacetate] gave an IC50 [4] of 30 ± 1 µM.

For `CONC(=O)N[C@]12CCCC(C)(C)[C@@H]1CCc1cc(C(C)C)c(OC(C)=O)c(OC(C)=O)c12` [Compound 12, (4bR,8aS)-2-isopropyl-4b-(3-methoxyureido)-8,8-dimethyl-4b,5,6,7,8,8a,9,10-octahydrophenanthrene-3,4-diyl diacetate], the IC50 [4] was 41 ± 3 µM.

With `CC(=O)Oc1c(C(C)C)cc2c(c1OC(C)=O)[C@@]1(NC(=O)NCCc3ccccc3)CCCC(C)(C)[C@@H]1CC2` [Compound 13, (4bR,8aS)-2-isopropyl-8,8-dimethyl-4b-(3-phenethylureido)-4b,5,6,7,8,8a,9,10-octahydrophenanthrene-3,4-diyl diacetate] the IC50 (Caco-2 cells) was 10.9 ± 0.6 µM, the IC50 (SW480 cells) was 8.6 ± 0.3 µM and the IC50 (SW620 cells [2]) was 9 ± 1 µM. It also gave an IC50 [4] of 14 ± 2 µM.

With `CC(=O)Oc1c(C(C)C)cc2c(c1OC(C)=O)[C@@]1(NC(=O)NCc3ccncc3)CCCC(C)(C)[C@@H]1CC2` [Compound 15, (4bR,8aS)-2-isopropyl-8,8-dimethyl-4b-(3-(pyridin-4-ylmethyl)ureido)-4b,5,6,7,8,8a,9,10-octahydrophenanthrene-3,4-diyl diacetate] the IC50 [4] was 33 ± 2 µM.

For `CC(=O)Oc1c(C(C)C)cc2c(c1OC(C)=O)[C@@]1(NC(=O)NCCCN(C)c3ccccc3)CCCC(C)(C)[C@@H]1CC2` [Compound 16, (4bR,8aS)-2-isopropyl-8,8-dimethyl-4b-(3-(3-(methyl(phenyl)amino)propyl)ureido)-4b,5,6,7,8,8a,9,10-octahydrophenanthrene-3,4-diyl diacetate], the IC50 (Caco-2 cells) was 9.6 ± 0.6 µM, the IC50 (A375 melanoma cells [1]) was 7.6 ± 0.6 µM and the IC50 (SW480 cells) was 7.6 ± 0.6 µM. It also gave an IC50 (SW620 cells [2]) of 6.4 ± 0.4 µM, an IC50 [3] of 9.3 ± 0.4 µM and an IC50 [4] of 12 ± 0.5 µM.

`CC(=O)Oc1c(C(C)C)cc2c(c1OC(C)=O)[C@@]1(NC(=O)NCc3ccoc3)CCCC(C)(C)[C@@H]1CC2` [Compound 17, (4bR,8aS)-4b-(3-(furan-3-ylmethyl)ureido)-2-isopropyl-8,8-dimethyl-4b,5,6,7,8,8a,9,10-octahydrophenanthrene-3,4-diyl diacetate] gave an IC50 [4] of 21 ± 2 µM.

`CC(=O)Oc1c(C(C)C)cc2c(c1OC(C)=O)[C@@]1(NC(=O)NCC3CCOCC3)CCCC(C)(C)[C@@H]1CC2` [Compound 18, (4bR,8aS)-2-isopropyl-8,8-dimethyl-4b-(3-((tetrahydro-2H-pyran-4-yl)methyl)ureido)-4b,5,6,7,8,8a,9,10-octahydrophenanthrene-3,4-diyl diacetate] showed an IC50 [4] of 51 ± 5 µM.

Work on `CC(=O)Oc1c(C(C)C)cc2c(c1OC(C)=O)[C@@]1(NC(=O)NC3COC3)CCCC(C)(C)[C@@H]1CC2` [Compound 19, (4bR,8aS)-2-isopropyl-8,8-dimethyl-4b-(3-(oxetan-3-yl)ureido)-4b,5,6,7,8,8a,9,10-octahydrophenanthrene-3,4-diyl diacetate] yielded an IC50 [4] of over 60 µM.

For `CC(=O)Oc1c(C(C)C)cc2c(c1OC(C)=O)[C@@]1(NC(=O)NCC3(C)COC3)CCCC(C)(C)[C@@H]1CC2` [Compound 20, (4bR,8aS)-2-isopropyl-8,8-dimethyl-4b-(3-((3-methyloxetan-3-yl)methyl)ureido)-4b,5,6,7,8,8a,9,10-octahydrophenanthrene-3,4-diyl diacetate], the IC50 [4] was 46 ± 2 µM.
